Where two headings read alike, the source gives them in different places.
How the values were obtained:
[1] = biological target: T1, ATP hydrolytic activity of sub-mitochondrial particles (SMPs), mitochondrial F1Fo-ATPase (Bos taurus, UniProt P13621); experiment: NADH-coupled kinetics assay of ATP hydrolysis by sub-mitochondrial particles; format: biochemical, bovine; conditions: for Ki: non-competitive (mixed) model; for Km / Vmax: three-dimensional fit
T1 construct: from tissue; host or cells: sub-mitochondrial particles (SMPs)
Protocol: The mechanism of inhibition for ATP hydrolysis induced by Bz-423 and derivatives of Bz-423 was assayed using an NADH-coupled assay. The ATP hydrolytic activity of the sub-mitochondrial particles (hereinafter SMPs) was measured by coupling the production of ADP to the oxidation of NADH via the pyruvate kinase and lactate dehydrogenase reaction. Briefly, ATP hydrolysis SMPs (0.8 mg; 7.14 μg/well) were added to hydrolysis buffer (100 mM Tris-HCl, pH 8.0 at 25° C., 4 mM MgCl2, […], 0.2 mM EDTA) and vortexed. 125 μL of this suspension was added to each well of a 96-well plate containing 50× drug or DMSO vehicle control (1% DMSO, final). The 96-well plate was then placed at 30° C. in a Molecular Devices Versamax tunable microplate reader and allowed to incubate for 5 min. During this 5 min, a substrate-coupling mixture was prepared (containing X mM ATP, 0.2 mM NADH, 1 mM phosphoenolpyruvate (PEP), 2 U/mL pyruvate kinase (PK), and 2 U/mL lactate dehydrogenase (LDH) in hydrolysis buffer). The rate of hydrolysis was assayed over a range of ATP concentrations (0.1-4.0 mM) at each [Bz]. 125 μL of the substrate-coupling mixture was added to each well, and the rate of NADH oxidation was monitored for 10 min at 340 nm, 30° C. The measured decrease in absorbance over time (in OD/min) was converted to μmol ATP hydrolyzed/min/mg SMP (ε=6220). The velocity data was plotted versus [ATP] for each concentration of [Bz] (e.g., 1-8 μM) (see, e.g., FIG. 1) and then fit to the Michaelis-Menten equation:
m1*m0/(1+m0/m2) • where m1=Vmax/Km and m2=Km The apparent kinetic parameters for each [Bz] were obtained from these curve fits to generate secondary plots of [Bz] versus Vmax, [Bz] versus Km, and [Bz] versus Vmax/Km (see, e.g., FIG. 2). The o-tert-Butyl derivative, shown below,
To obtain Ki values and confirm that an uncompetitive model of inhibition was the best fit for the data, three-dimensional fits of the velocity, [ATP], and [Bz] were performed to solve for Vmax, Km, Ki, and Ki* [where Ki indicates Bz binding to the ATPase with the third catalytic site empty (mixed-type inhibition only), and Ki* indicates binding when all three sites have substrate bound (uncompetitive and mixed-type inhibition)]. The following equations were used:
Vo=Vmax[S]/((1+[I]/Ki)Km+[S])
Vo=Vmax[S]/((1+[I]/Ki*) [S]+Km)
Vo=Vmax[S]/((1+[I]/Ki)Km+(1+[I]Ki*)[S])

[2] = tested on: F1Fo-ATPase; conditions: cited from earlier work
[3] = binding with third catalytic site empty
[4] = non-competitive (mixed) inhibition model

| Compound | mechanism of inhibition of ATP hydrolysis [1] | Ki ([1]; binding when all three sites have substrate bound, read-out: Ki*) | Ki [1, 3] | Km ([1]; competitive inhibition model) | Vmax ([1]; competitive inhibition model) | Vmax [1, 4] | Km ([1]; uncompetitive inhibition model) | Vmax ([1]; uncompetitive inhibition model) | mode of inhibition of the F1Fo-ATPase [2] | effect on apparent Km ([1]; secondary plot [Bz] versus Km, [Bz] 1-8 μM) | effect on apparent Vmax ([1]; secondary plot [Bz] versus Vmax, [Bz] 1-8 μM) | IC50 [2] |
| --- | --- | --- | --- | --- | --- | --- | --- | --- | --- | --- | --- | --- |
| CN1C(=O)C(Cc2ccc3ccccc3c2)N=C(c2ccc(O)cc2)c2cc(Cl)ccc21 (centres unmarked) [Bz-423] | uncompetitive | 18.9 ± 6.3 µM | no fit | 400 ± 100 µM | 2.62 ± 0.9 | 3.37 ± 1.4 | 680 ± 100 µM | 3.34 ± 1.3 | – | – | – | – |
| COC[C@@H](C[C@H]1O[C@@](O)([C@H](O)[C@@H]2C[C@H](OC)[C@@H](O)CC/C=C(C)/C=C/[C@@H](O[C@@H]3O[C@@H](C)[C@H](OC)[C@@H](O)[C@@H]3O)[C@H](C)/C=C(C)/C=C(C)/C=C(\C)C(=O)O2)[C@H](C)[C@@H](O)[C@H]1C)OC1C[C@](C)(O)[C@@H](O[C@H]2C[C@@H](OC)[C@H](O)[C@@H](C)O2)[C@H](C)O1 (some centres unmarked) [apoptolidin] | – | – | – | – | – | – | – | – | non-competitive | – | – | – |
| CN1C(=O)C(Cc2ccc(OC(C)(C)C)cc2)N=C(c2ccc(O)cc2)c2cc(Cl)ccc21 (centres unmarked) [o-tert-Butyl] | uncompetitive | – | no fit | 250 ± 20 µM | 1.25 ± .01 | 1.53 ± .03 | 390 ± 300 µM | 1.53 ± 0.03 | – | decreased | decreased | – |
| CC[C@H]1/C=C/C=C/C[C@@H](C)[C@H](O)[C@@](C)(O)C(=O)[C@@H](C)[C@H](O)[C@@H](C)C(=O)[C@@H](C)[C@H](O)[C@@H](C)/C=C/C(=O)O[C@@H]2[C@H](C)[C@H](CC1)O[C@]1(CC[C@H](C)[C@H](C[C@@H](C)O)O1)[C@H]2C [oligomycin] | – | – | – | – | – | – | – | – | non-competitive | – | – | 10 nM |

From patent US20080293700A1, “Compositions and Methods Relating to Novel Compounds and Targets Thereof” (priority 2004, published 2008)
